Values joined by “and” are separate entries in the source; they are usually repeats but may differ in a detail not shown here. Equal entries are not always repeated.
How the values were obtained:
C. acnes strain C3 = assay: Minimum inhibitory concentration (MIC) of cosmetic excipients, strain C3; type: cell-based, Cutibacterium acnes; details: % w/vol; anaerobic incubation 3 days at 37° C.; growth scored visually
Protocol: (§1) In microbiology, the MIC is the lowest concentration of a chemical which prevents visible growth of bacterium. The resulted MIC value depends both on the microorganism and the test compound. The MIC is determined by preparing concentrations series of the test compound in vitro, incubating the solutions with the separate batches of cultured bacteria, and measuring the results using agar dilution or broth microdilution. For the experiments with C. acnes strains C3 and K8, media comprising yeast extract soy peptone and dextrose were used. The MIC is determined by turbidity.
(§2) A total of 125 cosmetic excipients were tested for their compatibility with C. acnes strains C3 and K8. Hydrophilic compounds were tested in a 96-well plate liquid broth format, poorly soluble compounds were pre-dissolved in DMSO before dilution in liquid broth and hydrophobic or solid compounds were tested in an agar well diffusion test assay. The different dilutions of the test excipients in media were prepared in Falcon tubes and then distributed in a deep well plate using a multistepper. Each well received 1.2 ml and was subsequently inoculated with 120 μl of C. acnes bacteria suspension (strain C3 and K8). From the deep well plate 200 μl were transferred in each well of a clear 96 well replicate plate. The leftover was discarded. The plates were then incubated anaerobically for 3 days at 37° C. Following incubation, the test plates were visually examined and wells were scored for growth or complete growth inhibition to define the minimum inhibitory concentration.
(§3) These excipients are listed in the below table with their compatibility values for C. acnes strains C3 and K8. The compatibility values represent the MIC value of the listed ingredients with the tested C. acnes strains. At this concentration [% w/vol] the tested compound starts interfering with the growth of the tested strains. The compounds can be used in formulations at concentrations below this concentration.

C. acnes strain K8 = assay: Minimum inhibitory concentration (MIC) of cosmetic excipients, strain K8; type: cell-based, Cutibacterium acnes; details: % w/vol; anaerobic incubation 3 days at 37° C.; growth scored visually
Protocol: as §1, §2, §3

## CCCCCCC(O)CO (stereo not shown) [caprylyl glycol]
C. acnes strain C3
  COMPATABILITY VALUE C3 (MIC): 0.18%
C. acnes strain K8
  COMPATABILITY VALUE C3 (MIC): 0.18%

## O=C(O)CC(O)(CC(=O)O)C(=O)O [citric acid]
C. acnes strain C3
  COMPATABILITY VALUE C3 (MIC): 0.33%
C. acnes strain K8
  COMPATABILITY VALUE C3 (MIC): 0.08%

## CCO [ethanol]
C. acnes strain K8
  COMPATABILITY VALUE C3 (MIC): 3.75%

## CC(CO)CO [methylpropanediol]
C. acnes strain C3
  COMPATABILITY VALUE C3 (MIC): 4.00%
C. acnes strain K8
  COMPATABILITY VALUE C3 (MIC): 4.00%

## CC(=O)Oc1c(C)c(C)c2c(c1C)CCC(C)(CCC[C@H](C)CCC[C@H](C)CCCC(C)C)O2 (stereo partly shown) [tocopheryl acetate]
C. acnes strain C3
  COMPATABILITY VALUE C3 (MIC): 1.00%
C. acnes strain K8
  COMPATABILITY VALUE C3 (MIC): 1.00%

## Citric acid/citrate
C. acnes strain C3
  COM[…] C3 (MIC): 1.30%
C. acnes strain K8
  COM[…] C3 (MIC): 1.30%

## tocopherol
C. acnes strain C3
  COMPATABILITY VALUE C3 (MIC): 1.50% and 10.00%
C. acnes strain K8
  COMPATABILITY VALUE C3 (MIC): 1.50% and 10.00%
